Laboratory results reported in US6911527B1, “HIV related peptides” (The United States of America as represented by the …, priority 1999, dated 2005).

Key:
[1] = system: binding of phagotope-specific antibodies to HIV-1; assay: Displacement of binding of phagotope-specific antibodies to HIV-1 by phagotopes or peptides (ELISA); details: increasing concentrations of peptide
Procedure: FIG. 3. Phagotope-specific antibodies bind to HIV-1. a, ELISA reactivities of immunoaffinity purified antibodies with HIV-1. Antibodies were immunoaffinity purified from LTNP serum 6090 using single phagotopes as ligands and tested for ELISA reactivity against HIV-1 virions by using a standard ELISA kit (Organon). Purified antibodies were tested at 5-10 ng/ml; HIV-negative (CS) and serum 6090 (HIV-1S) were tested at 1:100 dilution. Data are expressed as mean±SEM of four independent determinations. b, The binding of phagotope-specific antibodies to HIV-1 is specifically displaced by the related phagotopes. ELISA reactivities of single immunopurified antibodies to HIV-I were tested in the presence of the indicated concentrations of p195 (▪), p197 (♦), p217 (●), p287 (▴), p335(▾). […] ELISA reactivities of single immunoaffinity purified antibodies with the related phagotopes were tested in the presence of increasing concentrations of peptides 195 (▪), 197 (▴), 217 (♦), 287 (ρ), 335 (●). d, HIV-1 immunoblotting with phagotope-specific human antibodies. Immunoffinity purified antibodies were tested at 60 ng/ml for binding to HIV-1 proteins in Western blot by a diagnostic kit (Cambridge Biotech.); 6090 LTNP serum was tested at 1:1000 dilution.
The phagotope specific antibodies, purified from serum to IgG concentrations of 5-10 ng/ml, recognized HIV-1 proteins by ELISA (FIG. 3a); this reactivity was specifically displaced by the related phagotopes, but not by wild-type or unrelated phages (FIG. 3b and data not shown).

[2] = system: serum antibodies of HIV-1-infected subjects; assay: ELISA reactivity of phagotopes with human sera (LTNP, AIDS, HIV-negative); assay type: binding; details: for antibody titers to phagotope in sera from LTNPs versus AIDS patients: p<0.05, one-sided Student's t test
Source text: FIG. 1. ELISA reactivities of HIV-specific phagotopes. a, LTNP and AIDS subjects were selected as reported (Pantaleo et al., N. Engl. J Med 332:209 (1995)). HIV-specific phagotopes were identified from RPL pVIII9aa-cys (selection 1), or pVIII9aa (selection 2) by serial steps of screening and phage colony purification as described in the Methods section. Results are expressed as fold increase of the average values of the phagotopes over values of the wild-type phages. Values were considered positive when at least four-fold higher than the background signal of wild-type phage. Average values of at least four independent assays are shown as <4; 4<<10; 10.1<<20; >20. The far right column indicates the recognition frequency of positive sera by each phagotope (f). The percentages of significant phage reactivity in the HIV-positive and control groups were compared using the Fisher Exact Test; p values (p<0.001) were adjusted for multiple testing using the Bonferroni method. b, Comparison of ELISA reactivities of phagotopes with sera of LTNP (hatched bars) versus AIDS subjects (black bars). Data are expressed as mean±SEM of fold increase for each phagotope. Statistical analysis was performed according to the one-sided Student's t test; asterisks indicate p<0.05.
To validate that the bound phagotopes carry HIV-specific epitopes, positive colonies were tested by ELISA for reactivity with sera from multiple HIV-infected individuals and counter-screened with an equivalent number of sera from HIV-negative subjects. For the EJISA analysis, microtiter plates were coated with anti M13 antibody (Pharmacia, Piscataway, N.J.) at 10 μg/ml overnight at 4° C. in coating buffer. Fifty μl of cleared phage supernatant with an equal volume of blocking buffer were incubated for 1 h at 37° C. Plates were washed extensively and supplemented with human serum at 1:100 dilution followed by an overnight incubation at 4° C. After washing, wells were coated with an anti-human (Fc-specific) alkaline phosphatase-conjugated antibody. Plates were washed and developed. Results were expressed as the difference between OD405 nm and OD620 nm by an ELISA reader.

[3] = ELISA reactivities of engineered (modified) peptide epitopes; assay type: binding
Procedure: The amino acid sequences of modifed peptides generated in this manner are as follows: • P195 analog: […] (SEQ ID NO: 14) • P197 analog: […] (SEQ ID NO:15) • P217 analog: […] (SEQ ID NO:16) • P287 analog: […] (SEQ ID NO: 17) • P335 analog: CSGRLYCHESWC (SEQ ID NO:18) • P54 analog: TKTLIYQGA (SEQ ID NO:19) The engineered eptiopes are then determined to be immunogenic as described in Example 4-6.

[4] = system: sera of SHIV-infected monkeys; assay: ELISA reactivity of monkey sera with HIV-specific phagotopes; assay type: binding, macaques; details: nine SHIV-infected monkeys
Procedure: FIG. 4. ELISA reactivities of monkey sera with HIV-specific phagotopes. Sera of naive monkeys (SHIV Negative) and SHIV-infected animals were tested for binding to HIV-1 phagotopes. Results are expressed as fold increase of OD405 nm values of tested phagotope over the OD405 nm values of wild-type-phage. Cutoff values were set as detailed in the legend to FIG. 1a. All the pre-infection sera of SHIV-positive animals tested negative by ELISA (not shown). A125, 42C, E50 and AK98 are Rhesus macaques; 4138, 4150 and 79 are cynomologous macaques; these animals were infected with SHIVMD1 (Shibata et al., J. Infect. Dis. 176:362 (1997)). 17860 and 17846 are pigtail macaques infected with SHIVMD14YE (Shibata et al., J. Infect. Dis. 176:362 (1997)).
In order to test this hypothesis, sera of nine SHIV-infected monkeys and of four uninfected control animals were tested for ELISA reactivity with the pool of HIV mimotopes. As in the case of HIV-1 infected subjects (FIG. 1a), sera of SHIV-infected monkeys recognized the HIV-1 phagotopes with variable frequencies (FIG. 4).

Sequence | displacement of antibody binding to HIV-1 by peptides in solution [1] | ELISA reactivities compared with the original peptides displayed on the phagotopes [3] | also measured
CCGCLTCSV [compound 287] | Only a partial competition | – | –
CNGRLYCGP [p217] | – | – | recognition frequency (f) of positive sera by phagotope ([2]; 22 LTNP sera and 25 AIDS sera, serum 1:100, positive = at least four-fold over wild-type phage): 23%; antibody titers to phagotope in sera from LTNPs versus AIDS patients [2]: significantly higher in sera from LTNPs; ELISA reactivity with AIDS sera ([2]; pool of AIDS sera): completely unreactive
CNGRLYCGP [peptide 217] | Only a partial competition | – | –
CSGRLYCHESWC [P335 analog] | – | similar | –
EGEFCCAGQLTCSVCGDPAK [P287 analog] | – | similar | –
EGEFCCNGRLYCQPCGDPAK [P217 analog] | – | similar | –
EGEFCKSSGKLISLCGDPAK [P195 analog] | – | similar | –
EGEFCQTKLVCFAAAGDPAK [P197 analog] | – | similar | –
GTKLVCFAA [compound 197] | effectively displaced | – | –
KSSGKLISL [compound 195] | effectively displaced | – | –
SGRLYCHESW [compound 335] | effectively displaced | – | –
SGRLYCHESW [p335] | – | – | antibody titers to phagotope in sera from LTNPs versus AIDS patients [2]: significantly higher in sera from LTNPs
TKTLIYGGA [p54] | – | – | ELISA reactivity with sera of SHIV-infected monkeys [4]: certain SHIV sera recognized
TKTLIYQGA [P54 analog] | – | similar | –
